As a reminder, the inhibition is the relative decrease from the control value, in per cent.

The subject of assay [1] is Glomerella lacenarium (Colletotrichum lacenarium). The experiment in a line: Glomerella lacenarium (Colletotrichum lacenarium) liquid culture / cucumber / preventative (anthracnose). As to conditions: 20 ppm in the applied formulation, liquid culture in PDB, 24° C., 3 to 4 days after application, read-out: disease control (inhibition of growth, photometric) compared to untreated control. In kind it is cell-based. In short, it runs like this:
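At 20 ppm in the applied formulation, compounds were mixed with fungal spores in potato dextrose broth and held at 24° C. After 3–4 days, photometric growth measurement gave percent antifungal activity relative to untreated control.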

A further assay relates to Phakopsora pachyrhizi. Put plainly: Phakopsora pachyrhizi / soybean / leaf disc preventative (Asian soybean rust). In kind it is in vivo. As to conditions: foliar, 200 ppm in the applied formulation, soybean leaf disks, assessed 12 to 14 days after application, read-out: disease control compared to untreated control leaf disks. On the procedure:
(§1) Leaf disks or leaf segments of various plant species are cut from plants grown in a greenhouse. The cut leaf disks or segments are placed in multiwell plates (24-well format) onto water agar. The leaf disks are sprayed with a test solution before (preventative) or after (curative) inoculation. Compounds to be tested are prepared as DMSO solutions (max. 10 mg/mL) which are diluted to the appropriate concentration with 0.025% Tween20 just before spraying. The inoculated leaf disks or segments are incubated under defined conditions (temperature, relative humidity, light, etc.) according to the respective test system. A single evaluation of disease level is carried out 3 to 14 days after inoculation, depending on the pathosystem. Percent disease control relative to the untreated check leaf disks or segments is then calculated.
Example 3: Fungicidal Activity Against Phakopsora pachyrhizi/Soybean/Leaf Disc Preventative (Asian Soybean Rust)
Soybean leaf disks are placed on water agar in multiwell plates (24-well format) and sprayed with the formulated test compound diluted in water. One day after application leaf discs are inoculated by spraying a spore suspension on the lower leaf surface. After an incubation period in a climate cabinet of 24-36 hours in darkness at 20° C. and 75% relative humidity leaf disc are kept at 20° C. with 12 hours light/day and 75% relative humidity. The activity of a compound is assessed as percent disease control compared to untreated when an appropriate level of disease damage appears in untreated check leaf disks (12 to 14 days after application).
(§2) The following compounds at 200 ppm in the applied formulation give at least 80% disease control in this test when compared to untreated control leaf disks under the same conditions, which show extensive disease development.

The subject of assay [2] is Puccinia recondita f. Sp. Tritici. The experiment in a line: Puccinia recondita f. sp. tritici / wheat / leaf disc preventative (brown rust). The format is in vivo. The settings on record: foliar, 200 ppm in the applied formulation, wheat leaf segments, preventative, assessed 7 to 9 days after application, read-out: disease control compared to untreated control leaf disks. The essentials:
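Wheat cv. Kanzler leaf segments on agar sprayed with formulated compound in water, inoculated with rust spores 1 day later. Incubated at 19° C, 75% rh, 12 h light/12 h dark; percent disease control versus untreated scored 7 to 9 days after application; tested at 200 ppm.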

The test system is the same in assay [3]. Put plainly: Puccinia recondita f. sp. tritici / wheat / leaf disc curative (brown rust). In kind it is in vivo. The settings on record: foliar, 200 ppm in the applied formulation, wheat leaf segments, curative (applied 1 day after inoculation), assessed 6 to 8 days after application, read-out: disease control compared to untreated control leaf disks. As for the experimental part: as §1
Example 2: Fungicidal Activity Against Puccinia recondita f. Sp. Tritici/Wheat/Leaf Disc Curative (Brown Rust)
Wheat leaf segments cv. Kanzler are placed on agar in multiwell plates (24-well format). The leaf segments are then inoculated with a spore suspension of the fungus. Plates were stored in darkness at 19° C. and 75% relative humidity. The formulated test compound diluted in water was applied 1 day after inoculation. The leaf segments were incubated at 19° C. and 75% relative humidity under a light regime of 12 hours light/12 hours darkness in a climate cabinet and the activity of a compound was assessed as percent disease control compared to untreated when an appropriate level of disease damage appears in untreated check leaf segments (6 to 8 days after application).
as §2

For the molecule `CCCC(=O)C(=O)N(Cc1ccc(-c2noc(C(F)(F)F)n2)cc1)CC1CC1` [Compound 1.6, N-(cyclopropyl-methyl)-2-oxo-N-[[4-[5-(trifluoromethyl)-1,2,4-oxadiazol-3-yl]phenyl]methyl]pentanamide], the inhibition at 20 ppm in assay [1] is ≥ 80%. For the same molecule, the pest or weed control at 200 ppm with Phakopsora pachyrhizi is ≥ 80%.

As for `CCCCON(Cc1ccc(-c2noc(C(F)(F)F)n2)cc1)C(=O)C(=O)CC` [Compound 1.30, N-butoxy-2-oxo-N-[[4-[5-(trifluoromethyl)-1,2,4-oxadiazol-3-yl]phenyl]methyl]butanamide], the inhibition at 20 ppm in assay [1] is ≥ 80%. In the assay on Phakopsora pachyrhizi, the pest or weed control at 200 ppm was ≥ 80%.

As to `CCC(=O)C(=O)N(C)c1ccc(-c2noc(C(F)(F)F)n2)cc1` [Compound 1.34, N-methyl-2-oxo-[4-[5-(trifluoromethyl)-1,2,4-oxadiazol-3-yl]phenyl]butanamide], the pest or weed control at 200 ppm with Phakopsora pachyrhizi was ≥ 80%.

Turning to `O=C(NCc1ccc(-c2noc(C(F)(F)F)n2)c(F)c1)C(=O)c1ccccc1` [Compound 1.42, N-[[3-fluoro-4-[5-(trifluoromethyl)-1,2,4-oxadiazol-3-yl]phenyl]methyl]-2-oxo-2-phenyl-acetamide], in assay [1], the inhibition at 20 ppm was ≥ 80%. For the same molecule, the pest or weed control at 200 ppm (in the assay on Phakopsora pachyrhizi; in assay [2]) was ≥ 80% each time.

For the molecule `O=C(NCc1ccc(-c2noc(C(F)(F)F)n2)c(F)c1F)C(=O)c1ccccc1` [Compound 1.46, N-[[2,3-difluoro-4-[5-(trifluoromethyl)-1,2,4-oxadiazol-3-yl]phenyl]methyl]-2-oxo-2-phenyl-acetamide], in assay [1], the inhibition at 20 ppm is ≥ 80%. Further, the pest or weed control at 200 ppm (in the assay on Phakopsora pachyrhizi; in assay [2]) was ≥ 80% in each case.

As for `CC(C)CC(=O)C(=O)NCc1ccc(-c2noc(C(F)(F)F)n2)cc1Cl` [Compound 1.61, N-[[2-chloro-4-[5-(trifluoromethyl)-1,2,4-oxadiazol-3-yl]phenyl]methyl]-4-methyl-2-oxo-pentanamide], the pest or weed control at 200 ppm (in the assay with Phakopsora pachyrhizi; in assay [2]) was ≥ 80% each time.

`Cc1cc(-c2noc(C(F)(F)F)n2)ccc1CNC(=O)C(=O)c1ccccc1` [Compound 1.65, N-[[2-methyl-4-[5-(trifluoromethyl)-1,2,4-oxadiazol-3-yl]phenyl]methyl]-2-oxo-2-phenyl-acetamide]: the pest or weed control at 200 ppm (in the assay with Phakopsora pachyrhizi; in assay [2]) was ≥ 80% in each case.

`Cc1cc(-c2noc(C(F)(F)F)n2)ccc1CNC(=O)C(=O)c1cccs1` [Compound 1.66, N-[[2-methyl-4-[5-(trifluoromethyl)-1,2,4-oxadiazol-3-yl]phenyl]methyl]-2-oxo-2-(2-thienyl)acetamide]: the pest or weed control at 200 ppm (in the assay on Phakopsora pachyrhizi; in assay [2]) was ≥ 80% in each case.

As for `Cc1cc(-c2noc(C(F)(F)F)n2)ccc1CNC(=O)C(=O)C(C)(C)C` [Compound 1.67, 3,3-dimethyl-N-[[2-methyl-4-[5-(trifluoromethyl)-1,2,4-oxadiazol-3-yl]phenyl]methyl]-2-oxo-butanamide], in assay [1], the inhibition at 20 ppm was ≥ 80%. Besides, the pest or weed control at 200 ppm with Phakopsora pachyrhizi was ≥ 80%.

Turning to `O=C(NCc1ccc(-c2noc(C(F)(F)F)n2)c(F)c1F)C(=O)c1ccco1` [Compound 1.81, N-[[2,3-difluoro-4-[5-(trifluoromethyl)-1,2,4-oxadiazol-3-yl]phenyl]methyl]-2-(2-furyl)-2-oxo-acetamide], in assay [1], the inhibition at 20 ppm was ≥ 80%. For the same molecule, the pest or weed control at 200 ppm with Phakopsora pachyrhizi is ≥ 80%.

On to `Cc1cc(-c2noc(C(F)(F)F)n2)ccc1CNC(=O)C(=O)c1ccco1` [Compound 1.86], for which the pest or weed control at 200 ppm (with Phakopsora pachyrhizi; in assay [2]) was ≥ 80% throughout.

In the case of `O=C(NCC1COCCO1)C(=O)Nc1ccc(-c2noc(C(F)(F)F)n2)cc1` (centres unmarked) [Compound 4.19, N-(1,4-dioxan-2-ylmethyl)-N′-[4-[5-(trifluoromethyl)-1,2,4-oxadiazol-3-yl]phenyl]oxamide], the pest or weed control at 200 ppm (in the assay with Phakopsora pachyrhizi; in assay [2]) was ≥ 80% in each case.

Consider `CCCNC(=O)C(=O)N(Cc1ccc(-c2noc(C(F)(F)F)n2)cc1)OC` [Compound 4.77, N′-methoxy-N-propyl-N′-[[4-[5-(trifluoromethyl)-1,2,4-oxadiazol-3-yl]phenyl]methyl] oxamide], for which the inhibition at 20 ppm in assay [1] is ≥ 80%. Also, the pest or weed control at 200 ppm in assay [3] and in assay [2] was ≥ 80% throughout.

As for `CONC(=O)C(=O)N(Cc1ccc(-c2noc(C(F)(F)F)n2)cc1)OC` [Compound 4.78, N,N′-dimethoxy-N′-[[4-[5-(trifluoromethyl)-1,2,4-oxadiazol-3-yl]phenyl]methyl] oxamide], the inhibition at 20 ppm in assay [1] was ≥ 80%. The pest or weed control at 200 ppm in assay [3] and in assay [2] was ≥ 80% each time.

In the case of `CON(Cc1ccc(-c2noc(C(F)(F)F)n2)cc1)C(=O)C(=O)N1CCOCC1` [Compound 4.80, N-methoxy-2-morpholino-2-oxo-N-[[4-[5-(trifluoromethyl)-1,2,4-oxadiazol-3-yl]phenyl]methyl] acetamide], the inhibition at 20 ppm in assay [1] is ≥ 80%. For the same molecule, the pest or weed control at 200 ppm in assay [3] and in assay [2] was ≥ 80% in each case.

With `NC(=O)C(=O)NCc1ccc(-c2noc(C(F)(F)F)n2)c(F)c1F` [Compound 4.84, N′-[[2,3-difluoro-4-[5-(trifluoromethyl)-1,2,4-oxadiazol-3-yl]phenyl]methyl] oxamide], the inhibition at 20 ppm in assay [1] was ≥ 80%. Also, the pest or weed control at 200 ppm in the assay on Phakopsora pachyrhizi is ≥ 80%.

Regarding `NC(=O)C(=O)NCCc1ccc(-c2noc(C(F)(F)F)n2)cc1` [Compound 4.85, N′-[2-[4-[5-(trifluoromethyl)-1,2,4-oxadiazol-3-yl]phenyl]ethyl] oxamide], the inhibition at 20 ppm in assay [1] is ≥ 80%. The pest or weed control at 200 ppm with Phakopsora pachyrhizi was ≥ 80%.

As for `CNC(=O)C(=O)N(C)Cc1ccc(-c2noc(C(F)(F)F)n2)cc1` [Compound 4.99, N,N′-dimethyl-N′-[[4-[5-(trifluoromethyl)-1,2,4-oxadiazol-3-yl]phenyl]methyl] oxamide], the inhibition at 20 ppm in assay [1] is ≥ 80%. The pest or weed control at 200 ppm in assay [3] and in assay [2] was ≥ 80% each time.

Regarding `CNC(=O)C(=O)N(Cc1ccc(-c2noc(C(F)(F)F)n2)cc1)C1CC1` [Compound 4.100, N′-cyclopropyl-N-methyl-N′-[[4-[5-(trifluoromethyl)-1,2,4-oxadiazol-3-yl]phenyl]methyl] oxamide], in assay [1], the inhibition at 20 ppm is ≥ 80%. For the same molecule, the pest or weed control at 200 ppm in assay [3] and in assay [2] was ≥ 80% each time.

As for `CONC(=O)C(=O)N(C)Cc1ccc(-c2noc(C(F)(F)F)n2)cc1` [Compound 4.102, N-methoxy-N′-methyl-N′-[[4-[5-(trifluoromethyl)-1,2,4-oxadiazol-3-yl]phenyl]methyl] oxamide], the inhibition at 20 ppm in assay [1] was ≥ 80%. In addition, the pest or weed control at 200 ppm in assay [3] and in assay [2] was ≥ 80% throughout.

For `CONC(=O)C(=O)N(Cc1ccc(-c2noc(C(F)(F)F)n2)cc1)C1CC1` [Compound 4.103, N′-cyclopropyl-N-methoxy-N′-[[4-[5-(trifluoromethyl)-1,2,4-oxadiazol-3-yl]phenyl]methyl] oxamide], the inhibition at 20 ppm in assay [1] was ≥ 80%. Moreover, the pest or weed control at 200 ppm in assay [3] and in assay [2] was ≥ 80% in each case.

With `CCN(Cc1ccc(-c2noc(C(F)(F)F)n2)cc1)C(=O)C(=O)NOC` [Compound 4.107, N'-ethyl-N-methoxy-N′-N′-[[4-[5-(trifluoromethyl)-1,2,4-oxadiazol-3-yl]phenyl]methyl] oxamide], in assay [1], the inhibition at 20 ppm is ≥ 80%. In addition, the pest or weed control at 200 ppm in assay [3] and in assay [2] was ≥ 80% in each case.

(Values after patent US20180370927A1, “MICROBIOCIDAL OXADIAZOLE DERIVATIVES” (SYNGENTA PARTICIPATIONS AG, priority 2015, published 2018).)
